# Measured values as given in patent US20050118658A1, “Use of ERRalpha phosphorylation status as a breast cancer biomarker” (priority 2003, published 2005).
# Assays:
# MCF-7 cells [1] = assay: 7 day growth assay, DNA content per well, MCF-7 cells; settings: 1I M gefitinib, 7 days
# Method: Using 12-well plates, MCF-7 and BT-474 cells were seeded at 15,000 and 30,000 cells per well. Cells were cultured for 7 days in the presence of the indicated test agents with media changes at day 0, day 2 and day 5. Following the 7 day treatment course, cells were assayed for DNA content per well. The results shown represent the mean ± SEM of three replicate wells.
# MCF-7 and BT-474 cells were seeded in 12-well plates at 15,000 and 30,000 cells per well, respectively. Cells were allowed to grow in the presence of the test agents for a total of 7 days, after which, they were harvested for measurement of DNA content per well using a fluorescent DNA quantification kit (Bio-Rad, Hercules, Calif.). Day 0 was considered to be 24 h after the cells were seeded, when the medium was initially replaced with fresh medium containing the test agents. The cell culture medium was again exchanged with fresh medium containing the appropriate test agents on days 2 and 5. […] The effects on cellular proliferation of the test agents are shown as the percentage of DNA amount per well relative to the control treated cells.
# [2] = system: phosphorylated Akt (p-Akt); assay: Immunoblot analysis of phosphorylated versus total Akt in BT-474 cells; type: cell-based, human; settings: 48 h, 20 μg/ml trastuzumab, 1 μM gefitinib, 20 μM U0126 or 20 μM LY294002
# Method: (§1) BT-474 cells were co-transfected in parallel with the ERE(5x)-regulated and TATA dual-luciferase reporter gene sets along with the indicated expression plasmids. […] In panel (B), the cells were incubated for 48 h in estrogen-free medium supplemented with dimethyl sulfoxide as the drug vehicle control, 20 μM U0126 (MEK inhibitor), or 20 μM LY294002 (PI3K inhibitor) as indicated. After incubation for 48 h, the cells were harvested for dual-luciferase assays. Data were analyzed as described in the legend to FIG. 2. (C) Immunoblot analysis of protein extracts (20 μg per sample) prepared from BT-474 cells treated as in panels A and B above for luciferase activity. The membrane was probed with antibodies that react specifically with ERRα. Reactive proteins were visualized by enhanced chemiluminescence and autoradiography. (D) Immunoblot analysis as in panel C above, only the membrane was probed with antibodies that react specifically with phosphorylated Akt (p-Akt), total Akt, phosphorylated MAPK (p-MAPK) or total MAPK.
# (§2) Proteins were extracted in Cell Lysis Buffer (Cell Signaling Technology, Beverly, Mass.) supplemented with Protease Inhibitor Cocktail Set III and Phosphatase Inhibitor Cocktail Set II (Calbiochem). Protein amounts were quantified with Coomassie Protein Assay Reagent (Pierce Biotechnology) with BSA as the standard. […] In FIG. 5D, the membrane was probed sequentially with p44/42 MAPK polyclonal antibody, phospho-specific p44/42 MAPK (Thr202/Tyr204) monoclonal antibody E10, Akt polyclonal antibody, and phospho-specific Akt (Ser473) polyclonal antibody (Cell Signaling Technology). Reacting material was detected using horseradish peroxidase-conjugated secondary antibodies (Jackson ImmunoResearch Laboratories, West Grove, Pa.) together with enhanced chemiluminescence (Amersham Pharmacia) and autoradiography.
# [3] = system: phosphorylated MAPK (p-MAPK); assay: Immunoblot analysis of phosphorylated versus total MAPK in BT-474 cells; type: cell-based, human; settings: 48 h, 20 μg/ml trastuzumab, 1 μM gefitinib, 20 μM U0126 or 20 μM LY294002
# Method: as §1, §2
# BT-474 cells = settings: literature statement; cited from earlier work
# ERRα = assay: Immunoblot analysis of ERRα expression in ERRα-transfected BT-474 cells; type: cell-based, human; settings: BT-474 cells transfected with ERRα, 48 h; 20 μg/ml trastuzumab, 1 μM gefitinib, 20 μM U0126 or 20 μM LY294002
# Method: as §1, §2
# MCF-7 cells [4] = settings: literature statement; cited from earlier work
smiles,measurement,setting,value
COc1cc2ncnc(Nc3ccc(F)c(Cl)c3)c2cc1OCCCN1CCOCC1 [gefitinib],effect on growth of MCF-7 cells,MCF-7 cells [1],did not significantly affect the growth
same,phosphorylation of Akt / PI3K/Akt pathway activation (immunoblot),[2],inhibited activation of the MEK/MAPK and PI3K/Akt signaling pathways
same,phosphorylation of MAPK / MEK/MAPK pathway activation (immunoblot),[3],inhibited activation of the MEK/MAPK and PI3K/Akt signaling pathways
same,"effect on growth of BT-474 cells (known, ref. 26)",BT-474 cells,significantly inhibit the growth
same,ERRα expression (immunoblot),ERRα,expression was maintained
same,"effect on growth of MCF-7 cells (known, ref. 35)",MCF-7 cells [4],affect only minimally the growth
